What all share (type): cell-based, Balb/c mice
In test [1] the test system is GA-specific polarized Th2 cells. Nature of the test: GA-Th2 assay: IL-4 in culture media by ELISA. As to conditions: 0 to 50 μg/ml antigen, 24 hours, sandwich ELISA. The procedure:
Populations of Th2 cells and APC cells were reanimated in culture media (RPMI/5% FBS/20 ng/mL IL-2), added dropwise. Cells were pelleted at 400-800G before being resuspended in fresh culture media for use in the assay. […] The final volume for the assay was 0.2 mL. The set up for the Th2 assay is illustrated in FIG. 7.
Conditioned culture media was collected 24 hours post stimulation for analysis by multiplex assay and ELISA.
The response curve was fit to the four parameter logistic fit equation using nonlinear regression and the EC50 (μg/ml) was calculated. One-way ANOVA followed by Tukey's multiple comparison test (significance level, p<0.05) was used for statistical testing of the dataset for each plate.
IL-4 levels were determined by sandwich ELISA.
(An ELISA detects its analyte on a solid surface through an enzyme-linked reagent.)

Test [2] has the same test system. Nature of the test: Th2 assay: cytokine secretion by GA-specific polarized Th2 cells with APCs and antigen, 9-plex MSD multiplex. The procedure:
Populations of Th2 cells and APC cells were reanimated in culture media (RPMI/5% FBS/20 ng/mL IL-2), added dropwise. Cells were pelleted at 400-800G before being resuspended in fresh culture media for use in the assay. For the assay, 150,000 APC cells were combined with a concentration of GA using serial dilution of the GA. The resulting concentration curve provided a range from 0-50 μg/mL GA. APC cells were incubated with the GA for about 10 minutes before the Th2 cells were added. The final volume for the assay was 0.2 mL. The set up for the Th2 assay is illustrated in FIG. 7.
More specifically, GA-specific polarized Th2 cells prepared according to Example 1 were cultured in vitro with varying concentrations of GA (reference standard commercial preparation, Copaxone® or glatiramoid (Sigma-Aldrich (COP-1)) in the presence of syngeneic, mitomycin-C-treated, naïve splenic APCs. Cells were cultured in 96-well plates in a final volume of 200 μl per well, with 50 μl of […] splenic APCs (150×10^3/50 μl) freshly isolated from naïve Balb/c mice, 50 μl of GA-specific polarized Th2 cells (50×10^3/50 μl) and 100 μl of culture media (complete RPMI-10 supplemented with 10% FBS) containing RLD or COP-1 at increasing concentrations of GA from 0 to 50 μg/ml. Conditioned culture media was collected 24 hours post stimulation for analysis by multiplex assay and ELISA. Th1 ([…], IL-2, IL-12p70, TNF-α, KC and IFN-γ) and Th2 (IL-4, IL-5, and IL-10) cytokine levels (pg/ml) were measured using the 9-plex mouse Th1/Th2 cytokine kit from Meso Scale Discovery (MSD) (Gaithersburg, Md.).

A further test concerns CD4+ T cells. Nature of the test: Cytokine levels in culture media of CD4+ T cells from GA-immunized mice after restimulation with antigen and APCs (multiplex). As to conditions: for levels of Th2 cytokines induced: after a second round of stimulation, 20 μg antigen. The method, then:
Balb/c mice (Jackson Labs) were immunized with 250 μg/mL of GA (reference lot drug (RLD) or ovalbumin (OVA), each in saline, emulsified in complete Freund's adjuvant (CFA) on day 1. On day 11, the draining lymph nodes were harvested, single cell suspensions were made, and CD4+ T cells were enriched by negative selection immunomagnetic bead purification.
For ex vivo challenge, CD4+ T cells (1×10^6/ml) were re-stimulated with 20 μg/mL of the same antigen used to immunize the mice (RLD, GA, or OVA) in the presence of freshly isolated or frozen naïve mitomycin C-treated splenic APCs (1×10^7/ml) for 3-4 days, at which time, the culture media was replaced with fresh culture media supplemented with 20 ng/ml of IL-2. Cells were split and reseeded at 800,000 cells/mL in media containing 4 parts fresh media (RPMI/5% FBS/20 ng/mL IL-2) and 1 part recycled media from the previous culture. This cycle of changing the media and splitting the cells was repeated for 6 cycles. Cells were frozen and stored as a cell bank.
After cell propagation, the CD4+ T cells were restimulated once again with freshly isolated naïve mitomycin C-treated splenic APCs (1×10^7/ml) for 4 days and 20 μg of the respective antigen. Culture supernatants were collected 72 hours after the start of each restimulation for analysis.
Th1 (IL-2 and IL-12p40), Th2 (IL-4, IL-5 IL-6, IL-10, and IL-13) and Th17 (IL-17) cytokine levels (ng/ml) were measured using multiplex technology (Endogen Searchlight, Rockford, Ill.). A one-way ANOVA followed by Newman-Keuls multiple comparison test (significance level, p<0.05) for each individual measured cytokine was used for statistical analysis.

As to “MOG (35-55): encephalitogenic neuroantigen peptide, Peptides International (MEVGWYRSPFSRVVHLYRNGK; UniProt Q61885 63-83, looked up, fragment)”, in test [1], the “IL-4 in the culture media (cross-reactivity)” value (shortened to “IL-4 in the culture media”) is “no IL-4 was detected”.

For “Poly(Ala, Glu, Lys, Tyr) 6:2:5:1 hydrobromide [COP-1]”, the “Th2 cytokines (IL-4, IL-5, IL-10) secreted” value in test [2] (0 to 50 μg/ml antigen, 24 hours) is given as “dose-dependent increase”. Also, in test [2] (0 to 50 μg/ml, 24 hours), the “levels of IL-2 and TNF-α” value was “quantifiable and exhibited dose dependency”; the “response versus RLD in secretion of the Th2 cytokines” value is reported as “readily distinguishable from RLD”. In test [2] (0 to 50 μg/ml, 24 hours, not dose dependent), the “levels of secreted Th1 cytokines (IL-1β, KC, IFN-γ)” value was “very low (below limits of quantitation)”. Further, in test [2] (0 to 50 μg/ml, 24 hours, quantitated), the IL-12 secretion result was “not dose dependent”. Further, the “doses at which discriminated from RLD in levels of IL-2 and TNF-α secreted” value in test [2] (24 hours) is more than 30 µg/mL. Moreover, in test [2] (restimulated in the presence of APCs), the “levels of Th2 cytokines (IL-4, IL-5, IL-10, IL-13), IL-2, IL-6 and TNF-α compared to restimulation with GA” value is “significantly decreased levels”.

With “PLP (139-151): encephalitogenic neuroantigen peptide, Peptides International (CHCLGKWLGHPDK; UniProt P60202 139-151, looked up, fragment)”, the “IL-4 in the culture media” value in test [1] is reported as “no IL-4 was detected”.

Consider “MBP (87-89): myelin basic protein peptide, Peptides International Catalog No. PMB-3973-PI (NRPHLIRLFSRDA; UniProt P04370 87-99, looked up, fragment)”, for which the “IL-4 in the culture media” value in test [1] was “no IL-4 was detected”.

Regarding “L-glutamic acid polymer with L-alanine, L-lysine and L-tyrosine, acetate (salt) [GA]”, in the test with CD4+ T cells (supernatant 72 hours), the “levels of Th2 cytokines induced” value is given as “high levels”. Besides, the “levels of Th2 cytokines (IL-5, IL-6, IL-10, IL-13) induced” value in the test on CD4+ T cells (after the first round of stimulation, 20 μg/mL antigen, supernatant 72 hours) was “low but detectable levels”. Further, the “Th17 cytokine IL-17 and Th1 cytokine IL-12p40” value in the test with CD4+ T cells (with the second round of stimulation) is reported as “selectively down-regulated”.

B1: ovalbumin: ovalbumin control antigen (protein, UniProt P01012 2-386, looked up)
Ovalbumin: GSIGAASMEFCFDVFKELKVHHANENIFYCPIAIMSALAMVYLGAKDSTRTQINKVVRFDKLPGFGDSIEAQCGTSVNVHSSLRDILNQITKPNDVYSFSLASRLYAEERYPILPEYLQCVKELYRGGLEPINFQTAADQARELINSWVESQTNGIIRNVLQPSSVDSQTAMVLVNAIVFKGLWEKAFKDEDTQAMPFRVTEQESKPVQMMYQIGLFRVASMASEKMKILELPFASGTMSMLVLLPDEVSGLEQLESIINFEKLTEWTSSNVMEERKIKVYLPRMKMEEKYNLTSVLMAMGITDVFSSSANLSGISSAESLKISQAVHAAHAEINEAGREVVGSAEAGVDAASVSEEFRADHPFLFCIKHIATNAVLFFGRCVSP
As to B1, the “levels of Th2 cytokines induced” value with CD4+ T cells (supernatant 72 hours) is given as “did not show a corresponding increase”.

B2: murine MBP: murine myelin basic protein, EMD Biosciences Catalog No. 124027 (protein, UniProt P04370 1-250, looked up)
Myelin basic protein: MGNHSGKRELSAEKASKDGEIHRGEAGKKRSVGKLSQTASEDSDVFGEADAIQNNGTSAEDTAVTDSKHTADPKNNWQGAHPADPGNRPHLIRLFSRDAPGREDNTFKDRPSESDELQTIQEDPTAASGGLDVMASQKRPSQRSKYLATASTMDHARHGFLPRHRDTGILDSIGRFFSGDRGAPKRGSGKDSHTRTTHYGSLPQKSQHGRTQDENPVVHFFKNIVTPRTPPPSQGKGGRDSRSGSPMARR
As to B2, the “IL-4 in the culture media” value in test [1] is given as “no IL-4 was detected”.
